In US11345694B2, “Antibacterial compounds” (DISCUVA LTD., priority 2017, dated 2022):
Values after ≈ are worked out from the molar mass of the structure shown.

Experiments:
[1] = system: E. coli NCTC 13441 (UPEC); test: MIC broth microdilution; assay type: cell-based, Escherichia coli; conditions: Escherichia coli, NCTC13441
How it was run: (§1)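 Planktonic cells were tested by CLSI broth microdilution in cation-adjusted Müller-Hinton broth, with compounds two-fold serially diluted to final concentrations of 0.39-200 μM (DMSO at most 2% final). After 20-24 h at 37° C in ambient air, MIC was taken as the lowest concentration inhibiting growth.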

[2] = system: Enterobacter cloacae DSM 30054 (Ed); test: MIC broth microdilution; assay type: cell-based; conditions: DSM30054
How it was run: (§2)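 Growth inhibition scored after 20-24 h at 37 °C in ambient air, in cation-adjusted Müller-Hinton broth; MIC is the lowest inhibitory concentration. Compounds serially diluted two-fold over 0.39-200 μM final (DMSO up to 2%), per CLSI microdilution guidelines.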

[3] = system: Acinetobacter baumannii ATCC 17978 (AB); test: MIC broth microdilution; assay type: cell-based; conditions: ATCC17978
How it was run: as §1

[4] = system: Serratia marcescens SL1344 (Sm); test: MIC broth microdilution; assay type: cell-based
How it was run: as §1

[5] = system: Klebsiella pneumoniae ATCC 10031 (KP2); test: MIC broth microdilution; assay type: cell-based; conditions: ATCC10031
How it was run: as §2

[6] = system: Salmonella typhimurium XNAA5 (St); test: MIC broth microdilution; assay type: cell-based; conditions: Salmonella enterica
How it was run: as §1

[7] = system: Pseudomonas aeruginosa ATCC 33359 (PA); test: MIC broth microdilution; assay type: cell-based; conditions: ATCC33359
How it was run: as §1

[8] = system: Staphylococcus aureus ATCC 35556 (SA); test: MIC broth microdilution; assay type: cell-based; conditions: ATCC35556
How it was run: as §1

[9] = system: Escherichia coli K12 (EC); test: MIC broth microdilution; assay type: cell-based
How it was run: as §1

[10] = system: K. pneumoniae NCTC 13438 (KP1); test: MIC broth microdilution; assay type: cell-based, Klebsiella pneumoniae; conditions: Klebsiella pneumoniae, NCTC13438
How it was run: as §2

[11] = system: human hepatocarcinoma cell line ATCC HB-8065 (HepG2); test: Human cell viability (CellTiter-Glo); assay type: cell-based; conditions: Homo sapiens; HepG2 cells, 24 h incubation, CellTiter-Glo luminescence, 0.2-100 μM; read-out: IC50 values against the HepG2 cell line
How it was run: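 Cytotoxicity was read as CellTiter-Glo luminescence after 24 h compound exposure at 37° C., 5% CO2. Final concentrations spanned 0.2-100 μM in two-fold steps, in 1% FBS MEM with 1% DMSO, on cells plated a day earlier at 20,000/well. IC50 came from 4-parameter logistic regression.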

[12] = system: Klebsiella pneumoniae ATCC 51504 (KP4); test: MIC broth microdilution; assay type: cell-based; conditions: ATCC51504
How it was run: as §1

[13] = system: K. pneumoniae H154680676 (KP5); test: MIC broth microdilution; assay type: cell-based, Klebsiella pneumoniae; conditions: Klebsiella pneumoniae
How it was run: as §2

[14] = system: K. pneumoniae ATCC 700603 (KP3); test: MIC broth microdilution; assay type: cell-based, Klebsiella pneumoniae; conditions: Klebsiella pneumoniae, ATCC700603
How it was run: as §2

[15] = system: K. pneumoniae H154640784 (KP7); test: MIC broth microdilution; assay type: cell-based, Klebsiella pneumoniae; conditions: Klebsiella pneumoniae
How it was run: as §2

[16] = system: K. pneumoniae H151440671 (KP10); test: MIC broth microdilution; assay type: cell-based, Klebsiella pneumoniae; conditions: Klebsiella pneumoniae
How it was run: as §2

[17] = system: K. pneumoniae H154300688 (KP9); test: MIC broth microdilution; assay type: cell-based, Klebsiella pneumoniae; conditions: Klebsiella pneumoniae
How it was run: as §2

[18] = system: K. pneumoniae H154600588 (KP8); test: MIC broth microdilution; assay type: cell-based, Klebsiella pneumoniae; conditions: Klebsiella pneumoniae
How it was run: as §2

[19] = system: K. pneumoniae H154020667 (KP6); test: MIC broth microdilution; assay type: cell-based, Klebsiella pneumoniae; conditions: Klebsiella pneumoniae
How it was run: as §2

MIC [1] [µM] | MIC [2] [µM] | MIC [3] [µM] | MIC [4] [µM] | MIC [5] [µM] | MIC [6] [µM] | MIC [7] [µM] | MIC [8] [µM] | MIC [9] [µM] | MIC [10] [µM] | IC50 [11] [µM] | MIC [12] [µM] | MIC [13] [µM] | MIC [14] [µM] | MIC [15] [µM] | MIC [16] [µM] | MIC [17] [µM] | MIC [18] [µM] | MIC [19] [µM] | Structure (SMILES)
1 to 10 (≈ 0.285 to 2.85 µg/mL) | 1 to 10 (≈ 0.285 to 2.85 µg/mL) | > 100 | 10 to 100 (≈ 2.85 to 28.5 µg/mL) | ≤ 1 | 1 to 10 (≈ 0.285 to 2.85 µg/mL) | > 100 | > 100 | ≤ 1 | 10 to 100 (≈ 2.85 to 28.5 µg/mL) | > 100 | – | – | – | – | – | – | – | – | Cc1cc(-c2nc(N)[nH]c2-c2ccc(Cl)cc2)ccn1 [Example 4, 5-(4-Chlorophenyl)-4-(2-methylpyridin-4-yl)-1H-imidazol-2-amine]
≤ 1 | – | > 100 | – | ≤ 1 | – | > 100 | > 100 | 1 to 10 (≈ 0.305 to 3.05 µg/mL) | 10 to 100 (≈ 3.05 to 30.5 µg/mL) | > 100 | 1 to 10 (≈ 0.305 to 3.05 µg/mL) | 1 to 10 (≈ 0.305 to 3.05 µg/mL) | 10 to 100 (≈ 3.05 to 30.5 µg/mL) | 10 to 100 (≈ 3.05 to 30.5 µg/mL) | 1 to 10 (≈ 0.305 to 3.05 µg/mL) | 1 to 10 (≈ 0.305 to 3.05 µg/mL) | 10 to 100 (≈ 3.05 to 30.5 µg/mL) | 1 to 10 (≈ 0.305 to 3.05 µg/mL) | Cc1cc(-c2[nH]c(N)nc2-c2ccc3c(c2)NCCC3)ccn1 [Example 58, 5-(2-Methylpyridin-4-yl)-4-(1,2,3,4-tetrahydroquinolin-7-yl)-1H-imidazol-2-amine]
1 to 10 (≈ 0.28 to 2.8 µg/mL) | > 100 | > 100 | > 100 | ≤ 1 | > 100 | > 100 | > 100 | 1 to 10 (≈ 0.28 to 2.8 µg/mL) | 10 to 100 (≈ 2.8 to 28 µg/mL) | > 100 | – | – | – | – | – | – | – | – | COc1ccc(-c2[nH]c(N)nc2-c2ccnc(C)c2)cc1 [Example 21, 5-(4-Methoxyphenyl)-4-(2-methylpyridin-4-yl)-1H-imidazol-2-amine]
≤ 1 | – | > 100 | – | ≤ 1 | – | > 100 | > 100 | 1 to 10 (≈ 0.364 to 3.64 µg/mL) | 1 to 10 (≈ 0.364 to 3.64 µg/mL) | > 100 | 1 to 10 (≈ 0.364 to 3.64 µg/mL) | 1 to 10 (≈ 0.364 to 3.64 µg/mL) | 1 to 10 (≈ 0.364 to 3.64 µg/mL) | 1 to 10 (≈ 0.364 to 3.64 µg/mL) | 1 to 10 (≈ 0.364 to 3.64 µg/mL) | 1 to 10 (≈ 0.364 to 3.64 µg/mL) | 10 to 100 (≈ 3.64 to 36.4 µg/mL) | 1 to 10 (≈ 0.364 to 3.64 µg/mL) | Cc1cc(-c2[nH]c(N)nc2-c2ccc3c(c2)N(C(=O)CN)CCO3)ccn1 [Example 62, 2-Amino-1-(6-(2-amino-5-(2-methylpyridin-4-yl)-1H-imidazol-4-yl)-2,3-dihydro-4H-benzo[b][1,4]oxazin-4-yl)ethan-1-one]
≤ 1 | – | > 100 | – | ≤ 1 | – | > 100 | > 100 | ≤ 1 | 1 to 10 (≈ 0.328 to 3.28 µg/mL) | > 100 | 1 to 10 (≈ 0.328 to 3.28 µg/mL) | 1 to 10 (≈ 0.328 to 3.28 µg/mL) | 1 to 10 (≈ 0.328 to 3.28 µg/mL) | 1 to 10 (≈ 0.328 to 3.28 µg/mL) | 1 to 10 (≈ 0.328 to 3.28 µg/mL) | 1 to 10 (≈ 0.328 to 3.28 µg/mL) | 10 to 100 (≈ 3.28 to 32.8 µg/mL) | 1 to 10 (≈ 0.328 to 3.28 µg/mL) | Nc1nc(-c2ccc3c(c2)NCCO3)c(-c2ccnc(Cl)c2)[nH]1 [Example 45, 5-(2-Chloropyridin-4-yl)-4-(3,4-dihydro-2H-benzo[b][1,4]oxazin-6-yl)-1H-imidazol-2-amine]
